Three compounds from EP3524067B1, “SPRAY-DRIED MIXTURE OF HUMAN MILK OLIGOSACCHARIDES” (Chr. Hansen HMO GmbH, priority 2018, dated 2019) can be followed below.

Data set [1] in a line: Powder particle size by laser diffraction. The format is physicochemical. Also noted: Size, Mean: unit not given here. Conditions: dispersed in isooctane; mean ± standard deviation of 3 measurements. As to the method: The powder particle size was assessed by laser diffraction. The system detects scattered and diffracted light by an array of concentrically arranged sensor elements. The software-algorithm is then approximating the particle counts by calculating the z-values of the light intensity values, which arrive at the different sensor elements. The analysis was executed using a SALD-7500 Aggregate Sizer (Shimadzu Corporation, Kyoto, Japan) quantitative laser diffraction system (qLD).
A small amount (spatula tip) of each sample was dispersed in 2 ml isooctane and homogenized by ultrasonication for five minutes. The dispersion was transferred into a batch cell filled with isooctane and analyzed in manual mode.
Data acquisition settings were as follows: Signal Averaging Count per Measurement: 128, Signal Accumulation Count: 3, and Interval: 2 seconds.
Prior to measurement, the system was blanked with isooctane. Each sample dispersion was measured 3 times and the mean values and the standard deviation are reported. Data was evaluated using software WING SALD II version V3.1. Since the refractive index of the sample was unknown, the refractive index of sugar (disaccharide) particles (1.530) was used for determination of size distribution profiles. Size values for mean and median diameter are reported.

The nature of data set [2]: Differential scanning calorimetry (DSC) of spray-dried human milk oligosaccharides. The data set is classed as physicochemical. Conditions: spray-dried powder; for endothermal event, normalized energy / endothermal event, peak temperature: DSC heating scan (first heating scan where stated); for Tg, 1st heating scan / Tg, 2nd heating scan: glass transition temperature; for Tg, 1st heating scan: midpoint of endothermic shift, reheated to 100 °C at 10 K/min; for Tg, 2nd heating scan: second heating cycle, reheated to 150 °C. An excerpt:
Using differential scanning calorimetry (DSC) on a Mettler Toledo 821e (Mettler Toledo, Giessen, Germany) thermal events of spray-dried human milk oligosaccharides, namely 3-fucosyllactose, 6'-sialyllactose, 3'-sialyllactose, lacto-N-tetraose, and spray-dried mixtures of human milk oligosaccharides, a mixture (HMO-Mix I) of 2'-fucosyllactose/lacto-N-tetraose, and a mixture (HMO Mix II) of 2'-fucosyllactose, 3-fucosyllactose, lacto-N-tetraose, 6'-sialyllactose, 3'-sialyllactose, respectively, were determined.
A Mettler Toledo 821e (Mettler Toledo, Giessen, Germany) was used to determine thermal events of the spray-dried products (glass transition temperature (Tg), further exo- and endothermic events).
Approximately 25 mg of the spray-dried human milk oligosaccharides were analyzed in crimped Al-crucibles (Mettler Toledo, Giessen, Germany). The samples were cooled to 0 °C with 10 K/min and reheated to 100 °C with a scanning rate of 10 K/min. After cooling down the samples to 0 °C in a second heating cycle, the samples were reheated to 150 °C. The midpoint of the endothermic shift of the baseline during the heating scan was taken as glass transition temperature (Tg). Exothermic and endothermic peaks are reported by means of the peak temperature and the normalized energy of the event.
(DSC measures the heat that a sample takes up or gives off during a temperature scan.)

For `CC(=O)N[C@H]1[C@H](O[C@H]2[C@@H](O)[C@@H](CO)O[C@@H](O[C@H]3[C@H](O)[C@@H](O)C(O)O[C@@H]3CO)[C@@H]2O)O[C@H](CO)[C@@H](O)[C@@H]1O[C@@H]1O[C@H](CO)[C@H](O)[C@H](O)[C@H]1O` (some centres unmarked) [Lacto-N-tetraose, lacto-N-tetraose], in data set [1], the “Size, Mean” value is reported as 117.3 ± 0.7 and the Size, Median was found to be 141 µm. Further, in data set [2], the “endothermal event, normalized energy” value is given as -6.04 J/g; the “endothermal event, peak temperature” value was “about 89 °C”; the “Tg, 1st heating scan” value is 49,9 °C; the “Tg, 2nd heating scan” value is 79,4 °C. Moreover, in data set [2] (listed as lacto-N-tetraose), the “Tg, 2nd heating scan” value is “about 79 °C”.
In data set [1], `CC(=O)N[C@H]1[C@H]([C@H](O)[C@H](O)CO)O[C@@](OC[C@H]2O[C@@H](O[C@H]3[C@H](O)[C@@H](O)[C@H](O)O[C@@H]3CO)[C@H](O)[C@@H](O)[C@H]2O)(C(=O)O)C[C@@H]1O` [6'-sialyllactose] registered a Size, Median of 141 µm. Further, in data set [2], the “endothermal event, normalized energy” value is listed as -0.22 J/g; the “endothermal event, peak temperature” value came out at 77 °C; the “Tg, 1st heating scan” value is 47,6 °C; the “Tg, 2nd heating scan” value was 49,6 °C. Besides, in data set [2] (first heating scan, result in words), the “endothermal relaxation peak after Tg” value is “detected”.
For `CC(=O)N[C@H]1[C@H]([C@H](O)[C@H](O)CO)O[C@@](O[C@H]2[C@@H](O)[C@@H](CO)O[C@@H](O[C@H]3[C@H](O)[C@@H](O)C(O)O[C@@H]3CO)[C@@H]2O)(C(=O)O)C[C@@H]1O` (some centres unmarked) [3'-sialyllactose], the Size, Median in data set [1] worked out at 122 ± 16.7 µm. Further, in data set [2], the “Tg, 1st heating scan” value was 48,8 °C and the “Tg, 2nd heating scan” value is 54,3 °C. The endothermal events result in data set [2] (result in words) is listed as “No endothermal events were detected”.
